According to PMC5513037, “Examining the influence of specificity ligands and ATP-competitive ligands on the overall effectiveness of bivalent kinase inhibitors” (Proteome Science, 2017):
pIC50: −log10 of the molar value.

Tests used:
Assay in all cases: KAM-matrix competition in K562 lysate;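 as to 0.001 uM KAM: median log10 fold change of treatment over DMSO control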;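 as to 0.01 uM KAM: median log10 fold change of treatment over DMSO control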;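 as to 0.1 uM KAM: median log10 fold change of treatment over DMSO control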;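 as to 1 uM KAM: median log10 fold change of treatment over DMSO control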;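 as to 10 uM KAM: median log10 fold change of treatment over DMSO control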
Assay type in all cases: binding
PDPK1 = target: T1, PDPK1 (Homo sapiens, UniProt O15530);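 as to 0.001 uM KAM: median log10 fold change of treatment over DMSO control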;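 as to 0.01 uM KAM: median log10 fold change of treatment over DMSO control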;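 as to 0.1 uM KAM: median log10 fold change of treatment over DMSO control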;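 as to 1 uM KAM: median log10 fold change of treatment over DMSO control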;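 as to 10 uM KAM: median log10 fold change of treatment over DMSO control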
T1 construct: endogenous in cells; host or cells: K562
T1 sequence (O15530 1-556): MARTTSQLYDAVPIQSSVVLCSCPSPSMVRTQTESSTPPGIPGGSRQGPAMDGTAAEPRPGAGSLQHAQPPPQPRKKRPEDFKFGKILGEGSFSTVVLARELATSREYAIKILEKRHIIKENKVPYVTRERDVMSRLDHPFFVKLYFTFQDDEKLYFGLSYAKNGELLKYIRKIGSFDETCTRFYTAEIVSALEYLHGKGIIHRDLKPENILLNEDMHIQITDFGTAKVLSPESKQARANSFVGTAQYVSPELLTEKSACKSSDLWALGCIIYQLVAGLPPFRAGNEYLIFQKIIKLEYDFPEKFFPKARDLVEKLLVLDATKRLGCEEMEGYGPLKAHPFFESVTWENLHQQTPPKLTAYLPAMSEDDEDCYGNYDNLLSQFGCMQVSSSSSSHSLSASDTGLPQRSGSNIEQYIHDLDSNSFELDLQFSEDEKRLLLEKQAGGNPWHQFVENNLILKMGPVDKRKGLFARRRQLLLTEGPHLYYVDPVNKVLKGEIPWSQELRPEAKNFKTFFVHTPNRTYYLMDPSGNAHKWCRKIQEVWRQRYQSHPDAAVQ
Protocol: (§1) Supplement 12953_2017_125_MOESM1_ESM.zip/MS_Supp Info.xlsx, sheet "KAM" | column: 10 uM KAM; 1 uM KAM; 0.1 uM KAM; 0.01 uM KAM; 0.001 uM KAM; RB50

BMPR1A = target: T2, BMPR1A (Homo sapiens, UniProt P36894)
T2 construct: endogenous in cells; host or cells: K562
T2 sequence (P36894 24-532): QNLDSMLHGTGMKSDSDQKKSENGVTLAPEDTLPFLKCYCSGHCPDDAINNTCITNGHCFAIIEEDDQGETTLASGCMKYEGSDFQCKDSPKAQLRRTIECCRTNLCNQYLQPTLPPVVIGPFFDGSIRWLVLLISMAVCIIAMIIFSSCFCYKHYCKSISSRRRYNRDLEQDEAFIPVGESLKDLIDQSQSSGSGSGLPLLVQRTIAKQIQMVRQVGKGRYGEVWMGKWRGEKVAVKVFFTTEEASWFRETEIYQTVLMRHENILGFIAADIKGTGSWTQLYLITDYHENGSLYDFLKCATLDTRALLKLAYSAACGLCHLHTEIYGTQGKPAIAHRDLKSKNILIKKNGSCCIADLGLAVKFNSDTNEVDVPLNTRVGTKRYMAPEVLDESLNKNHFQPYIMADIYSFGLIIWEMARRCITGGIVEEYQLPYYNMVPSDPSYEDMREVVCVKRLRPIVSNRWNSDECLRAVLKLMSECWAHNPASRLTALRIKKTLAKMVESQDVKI
Protocol: as §1

LIMK1 = LIMK1 (Homo sapiens, UniProt P53667);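 as to 0.001 uM KAM: median log10 fold change of treatment over DMSO control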;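 as to 0.01 uM KAM: median log10 fold change of treatment over DMSO control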;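 as to 0.1 uM KAM: median log10 fold change of treatment over DMSO control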;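 as to 1 uM KAM: median log10 fold change of treatment over DMSO control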;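 as to 10 uM KAM: median log10 fold change of treatment over DMSO control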
LIMK1, sequence (P53667 whole entry): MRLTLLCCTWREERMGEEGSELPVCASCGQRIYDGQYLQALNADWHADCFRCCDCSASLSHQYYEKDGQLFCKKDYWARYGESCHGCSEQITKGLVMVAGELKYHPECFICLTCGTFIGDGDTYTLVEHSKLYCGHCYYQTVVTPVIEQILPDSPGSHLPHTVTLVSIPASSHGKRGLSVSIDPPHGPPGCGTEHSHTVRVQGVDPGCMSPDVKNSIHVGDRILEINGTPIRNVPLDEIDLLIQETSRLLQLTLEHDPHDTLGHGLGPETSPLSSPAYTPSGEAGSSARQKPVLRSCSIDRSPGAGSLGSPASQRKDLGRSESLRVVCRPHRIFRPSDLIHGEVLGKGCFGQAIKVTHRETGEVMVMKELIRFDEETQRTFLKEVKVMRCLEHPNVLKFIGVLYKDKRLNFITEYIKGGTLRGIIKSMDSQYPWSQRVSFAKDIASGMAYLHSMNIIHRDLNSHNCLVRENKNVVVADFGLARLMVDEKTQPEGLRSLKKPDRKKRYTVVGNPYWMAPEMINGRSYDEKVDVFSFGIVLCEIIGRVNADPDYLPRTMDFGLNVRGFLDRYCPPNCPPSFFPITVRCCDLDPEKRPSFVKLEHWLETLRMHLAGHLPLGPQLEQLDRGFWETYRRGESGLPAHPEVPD
Protocol: as §1

EPHB4 = target: T3, EPHB4 (Homo sapiens, UniProt P54760)
T3 construct: endogenous in cells; host or cells: K562
T3 sequence (P54760 16-987): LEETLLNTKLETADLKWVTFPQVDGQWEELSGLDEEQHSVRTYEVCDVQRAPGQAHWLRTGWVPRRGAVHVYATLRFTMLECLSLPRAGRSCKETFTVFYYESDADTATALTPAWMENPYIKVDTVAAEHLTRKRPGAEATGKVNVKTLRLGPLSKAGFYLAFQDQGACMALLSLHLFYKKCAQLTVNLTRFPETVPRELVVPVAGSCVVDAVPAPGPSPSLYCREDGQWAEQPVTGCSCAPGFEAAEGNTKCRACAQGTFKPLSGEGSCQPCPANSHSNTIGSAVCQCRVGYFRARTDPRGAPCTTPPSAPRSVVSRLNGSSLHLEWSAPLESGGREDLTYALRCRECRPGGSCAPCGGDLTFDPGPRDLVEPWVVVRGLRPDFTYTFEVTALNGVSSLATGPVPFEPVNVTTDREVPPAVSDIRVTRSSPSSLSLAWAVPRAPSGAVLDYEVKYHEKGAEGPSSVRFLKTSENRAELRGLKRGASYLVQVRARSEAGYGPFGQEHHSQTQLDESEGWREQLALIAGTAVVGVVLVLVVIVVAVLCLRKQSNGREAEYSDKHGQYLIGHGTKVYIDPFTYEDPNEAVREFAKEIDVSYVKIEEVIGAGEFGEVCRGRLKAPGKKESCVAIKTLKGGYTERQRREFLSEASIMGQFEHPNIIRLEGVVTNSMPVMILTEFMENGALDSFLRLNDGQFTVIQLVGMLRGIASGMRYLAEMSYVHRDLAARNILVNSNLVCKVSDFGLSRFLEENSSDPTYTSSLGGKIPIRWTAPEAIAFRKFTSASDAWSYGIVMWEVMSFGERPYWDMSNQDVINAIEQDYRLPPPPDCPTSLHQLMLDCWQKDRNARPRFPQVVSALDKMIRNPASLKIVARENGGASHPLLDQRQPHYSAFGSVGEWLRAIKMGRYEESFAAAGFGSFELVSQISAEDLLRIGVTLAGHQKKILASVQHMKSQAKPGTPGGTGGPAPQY
Protocol: as §1

EIF2AK4 = target: T4, EIF2AK4 (Homo sapiens, UniProt Q9P2K8);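 as to 0.001 uM KAM: median log10 fold change of treatment over DMSO control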;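 as to 0.01 uM KAM: median log10 fold change of treatment over DMSO control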;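 as to 0.1 uM KAM: median log10 fold change of treatment over DMSO control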;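 as to 1 uM KAM: median log10 fold change of treatment over DMSO control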;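 as to 10 uM KAM: median log10 fold change of treatment over DMSO control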
T4 construct: endogenous in cells; host or cells: K562
T4 sequence (Q9P2K8 whole entry): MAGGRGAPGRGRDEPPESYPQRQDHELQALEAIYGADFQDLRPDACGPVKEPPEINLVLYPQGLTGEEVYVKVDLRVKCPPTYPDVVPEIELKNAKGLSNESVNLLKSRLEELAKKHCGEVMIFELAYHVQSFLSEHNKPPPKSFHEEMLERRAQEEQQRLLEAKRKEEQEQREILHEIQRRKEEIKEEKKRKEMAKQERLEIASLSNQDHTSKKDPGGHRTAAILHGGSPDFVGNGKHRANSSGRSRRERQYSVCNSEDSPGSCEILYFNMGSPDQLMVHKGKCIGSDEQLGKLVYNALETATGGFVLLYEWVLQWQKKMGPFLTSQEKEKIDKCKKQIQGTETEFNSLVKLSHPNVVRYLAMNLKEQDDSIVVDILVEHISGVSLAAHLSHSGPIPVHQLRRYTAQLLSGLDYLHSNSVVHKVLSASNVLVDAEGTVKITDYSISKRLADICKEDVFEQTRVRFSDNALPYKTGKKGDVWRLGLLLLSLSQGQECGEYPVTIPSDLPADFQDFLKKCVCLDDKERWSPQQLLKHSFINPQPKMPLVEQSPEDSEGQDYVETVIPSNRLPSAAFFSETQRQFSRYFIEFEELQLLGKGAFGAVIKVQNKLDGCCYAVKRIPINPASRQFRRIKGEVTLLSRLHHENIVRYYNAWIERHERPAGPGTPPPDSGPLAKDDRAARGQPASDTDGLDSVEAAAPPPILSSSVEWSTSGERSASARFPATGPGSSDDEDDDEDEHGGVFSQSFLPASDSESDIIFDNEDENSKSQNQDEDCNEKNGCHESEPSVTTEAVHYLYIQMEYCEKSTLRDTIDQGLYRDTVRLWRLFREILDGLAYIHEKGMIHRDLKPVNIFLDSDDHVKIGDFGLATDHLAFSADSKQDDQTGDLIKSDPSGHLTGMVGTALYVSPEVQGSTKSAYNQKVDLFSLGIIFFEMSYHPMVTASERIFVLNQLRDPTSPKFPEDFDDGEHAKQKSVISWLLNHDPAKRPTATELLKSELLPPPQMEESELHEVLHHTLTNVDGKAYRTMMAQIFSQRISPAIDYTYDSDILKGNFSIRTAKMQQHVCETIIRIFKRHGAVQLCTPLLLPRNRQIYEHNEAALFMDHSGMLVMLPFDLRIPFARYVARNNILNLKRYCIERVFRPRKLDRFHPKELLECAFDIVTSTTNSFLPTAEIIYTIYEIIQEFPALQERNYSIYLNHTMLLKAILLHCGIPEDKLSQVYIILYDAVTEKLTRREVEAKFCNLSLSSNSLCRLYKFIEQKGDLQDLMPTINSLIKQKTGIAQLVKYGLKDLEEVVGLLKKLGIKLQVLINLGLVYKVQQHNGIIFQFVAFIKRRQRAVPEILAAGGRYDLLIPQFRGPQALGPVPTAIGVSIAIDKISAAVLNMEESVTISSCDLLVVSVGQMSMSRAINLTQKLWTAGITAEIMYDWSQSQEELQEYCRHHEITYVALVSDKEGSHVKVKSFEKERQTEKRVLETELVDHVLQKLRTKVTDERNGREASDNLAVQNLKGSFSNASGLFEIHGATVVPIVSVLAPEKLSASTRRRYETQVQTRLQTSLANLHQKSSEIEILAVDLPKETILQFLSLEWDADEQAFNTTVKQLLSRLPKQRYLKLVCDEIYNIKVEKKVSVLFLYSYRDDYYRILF
Protocol: as §1

IGF1R = target: T5, IGF1R (Homo sapiens, UniProt P08069)
T5 construct: K562 cell pellets were thawed on ice and resuspended in cold Lysis buffer; endogenous in cells; host or cells: K562
T5 sequence (P08069 741-1367 limits assumed): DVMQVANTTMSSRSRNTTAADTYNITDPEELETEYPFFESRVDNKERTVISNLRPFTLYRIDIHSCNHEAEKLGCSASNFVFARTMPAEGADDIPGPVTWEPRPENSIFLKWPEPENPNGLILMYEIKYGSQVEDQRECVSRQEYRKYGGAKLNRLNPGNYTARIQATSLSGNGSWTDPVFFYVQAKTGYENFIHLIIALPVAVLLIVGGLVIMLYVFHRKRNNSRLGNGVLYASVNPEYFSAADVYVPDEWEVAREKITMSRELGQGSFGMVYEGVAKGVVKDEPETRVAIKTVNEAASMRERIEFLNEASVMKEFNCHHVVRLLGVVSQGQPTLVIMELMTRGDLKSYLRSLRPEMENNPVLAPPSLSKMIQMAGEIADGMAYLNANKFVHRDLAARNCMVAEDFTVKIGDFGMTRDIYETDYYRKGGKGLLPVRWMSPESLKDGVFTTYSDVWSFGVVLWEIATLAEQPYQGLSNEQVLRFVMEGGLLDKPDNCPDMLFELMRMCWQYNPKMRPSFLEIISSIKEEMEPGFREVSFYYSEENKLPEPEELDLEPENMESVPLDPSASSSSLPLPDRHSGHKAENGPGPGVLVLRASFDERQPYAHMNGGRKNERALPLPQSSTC
T5 sequence (P08069 31-736 partner limits assumed): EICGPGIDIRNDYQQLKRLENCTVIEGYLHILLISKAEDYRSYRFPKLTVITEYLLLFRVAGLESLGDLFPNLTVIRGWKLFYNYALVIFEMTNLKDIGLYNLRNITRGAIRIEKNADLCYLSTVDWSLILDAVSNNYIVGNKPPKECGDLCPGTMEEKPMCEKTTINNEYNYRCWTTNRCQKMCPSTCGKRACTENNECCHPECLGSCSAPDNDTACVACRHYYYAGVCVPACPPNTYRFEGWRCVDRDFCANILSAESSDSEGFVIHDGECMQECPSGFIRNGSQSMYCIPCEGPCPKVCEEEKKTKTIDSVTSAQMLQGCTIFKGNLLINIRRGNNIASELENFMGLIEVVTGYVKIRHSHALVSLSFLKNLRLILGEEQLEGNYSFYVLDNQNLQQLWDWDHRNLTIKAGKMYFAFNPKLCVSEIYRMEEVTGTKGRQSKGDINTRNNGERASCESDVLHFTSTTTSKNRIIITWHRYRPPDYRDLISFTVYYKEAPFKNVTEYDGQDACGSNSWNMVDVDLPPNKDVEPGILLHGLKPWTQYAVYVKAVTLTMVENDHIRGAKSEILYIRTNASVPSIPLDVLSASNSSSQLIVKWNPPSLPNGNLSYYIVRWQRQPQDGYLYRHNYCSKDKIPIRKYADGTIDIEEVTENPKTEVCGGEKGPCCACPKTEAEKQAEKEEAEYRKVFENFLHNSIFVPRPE
Protocol: as §1

[1] = KAM 0.001-10 uM, read-out: RB50 (the source's name)
[2] = read-out: RB50 (the source's name)

## N#CCc1ccc(Nc2nc(NCCCN)cc(Nc3cc(C4CC4)[nH]n3)n2)cc1 [KAM]
PDPK1; [1]
  pIC50: < 5.00
PDPK1; relative to 0 uM KAM = 0
  0.001 uM KAM: -0.001927
  0.01 uM KAM: -0.01199
  0.1 uM KAM: -0.03413
  1 uM KAM: -0.1736
  10 uM KAM: -0.2461
BMPR1A; 0.001 uM KAM
  median Log10 fold change: -0.03052
BMPR1A; 0.01 uM KAM
  median Log10 fold change: -0.01848
BMPR1A; 0.1 uM KAM
  median Log10 fold change: -0.1062
BMPR1A; 1 uM KAM
  median Log10 fold change: -0.2213
BMPR1A; 10 uM KAM
  median Log10 fold change: -0.3941
BMPR1A; [2]
  pIC50: 5.57
LIMK1; [1]
  pIC50: < 5.00
LIMK1; relative to 0 uM KAM = 0
  0.001 uM KAM: -0.03519
  0.01 uM KAM: -0.04768
  0.1 uM KAM: -0.0434
  1 uM KAM: 0.03552
  10 uM KAM: -0.3303
EPHB4; 0.001 uM KAM
  median Log10 fold change: -0.01696
EPHB4; 0.01 uM KAM
  median Log10 fold change: -0.007903
EPHB4; 0.1 uM KAM
  median Log10 fold change: -0.1428
EPHB4; 1 uM KAM
  median Log10 fold change: -0.3696
EPHB4; 10 uM KAM
  median Log10 fold change: -0.517
EPHB4; [2]
  pIC50: 6.14
EIF2AK4; [1]
  pIC50: < 5.00
EIF2AK4; relative to 0 uM KAM = 0
  0.001 uM KAM: -0.0489
  0.01 uM KAM: 0.01964
  0.1 uM KAM: -0.07688
  1 uM KAM: -0.1098
  10 uM KAM: -0.203
IGF1R; 0.001 uM KAM
  median Log10 fold change: -0.01905
IGF1R; 0.01 uM KAM
  median Log10 fold change: -0.03637
IGF1R; 0.1 uM KAM
  median Log10 fold change: -0.1832
IGF1R; 1 uM KAM
  median Log10 fold change: -0.3556
IGF1R; 10 uM KAM
  median Log10 fold change: -0.4489
IGF1R; [2]
  pIC50: 6.16
